Results: patent US10533000B2, “Metabotrophic glutamate receptor 5 modulators and methods of use thereof” (Sunovion Pharmaceuticals, Inc., priority 2011, dated 2020)

Target: mGluR5 (Homo sapiens, UniProt P41594)
Experiment: mGluR5 positive allosteric modulator (PAM) functional assay
Type: cell-based

mGluR5, sequence (P41594 21-1212): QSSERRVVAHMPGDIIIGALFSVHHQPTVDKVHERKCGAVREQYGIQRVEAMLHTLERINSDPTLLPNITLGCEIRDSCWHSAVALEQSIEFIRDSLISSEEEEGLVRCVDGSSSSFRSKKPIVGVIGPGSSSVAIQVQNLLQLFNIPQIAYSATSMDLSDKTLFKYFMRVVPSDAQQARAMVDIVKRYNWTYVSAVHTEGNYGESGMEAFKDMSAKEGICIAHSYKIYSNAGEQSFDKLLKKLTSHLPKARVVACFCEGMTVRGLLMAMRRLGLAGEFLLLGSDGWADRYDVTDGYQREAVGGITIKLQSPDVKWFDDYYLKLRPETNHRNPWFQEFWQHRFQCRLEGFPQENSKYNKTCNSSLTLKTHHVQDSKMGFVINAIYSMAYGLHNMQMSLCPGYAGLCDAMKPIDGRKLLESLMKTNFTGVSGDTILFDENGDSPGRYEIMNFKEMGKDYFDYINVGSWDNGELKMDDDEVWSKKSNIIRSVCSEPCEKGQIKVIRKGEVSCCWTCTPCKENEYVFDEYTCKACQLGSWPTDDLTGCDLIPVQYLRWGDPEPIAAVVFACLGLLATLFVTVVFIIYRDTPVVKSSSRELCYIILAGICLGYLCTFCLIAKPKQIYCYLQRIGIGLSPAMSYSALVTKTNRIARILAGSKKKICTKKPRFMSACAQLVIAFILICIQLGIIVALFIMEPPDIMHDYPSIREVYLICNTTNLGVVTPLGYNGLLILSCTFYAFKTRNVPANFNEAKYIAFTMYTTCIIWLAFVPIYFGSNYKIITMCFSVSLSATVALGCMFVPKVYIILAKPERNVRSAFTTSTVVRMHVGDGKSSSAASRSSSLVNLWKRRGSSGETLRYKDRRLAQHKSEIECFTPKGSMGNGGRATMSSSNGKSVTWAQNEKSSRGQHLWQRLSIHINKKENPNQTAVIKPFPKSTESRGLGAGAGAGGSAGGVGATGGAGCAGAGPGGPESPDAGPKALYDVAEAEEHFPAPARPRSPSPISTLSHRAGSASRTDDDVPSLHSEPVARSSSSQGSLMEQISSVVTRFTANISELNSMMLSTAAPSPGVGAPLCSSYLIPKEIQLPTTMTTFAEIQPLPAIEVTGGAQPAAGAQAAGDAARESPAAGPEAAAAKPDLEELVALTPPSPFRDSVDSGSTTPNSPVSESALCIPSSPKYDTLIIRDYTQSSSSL

Structure (SMILES) | EC50 [nM]
CCC(C)c1nc(-c2ccc(C#Cc3ccccn3)nc2)no1 (stereo not drawn) [Compound 86, 5-(sec-butyl)-3-(6-(pyridin-2-ylethynyl)pyridin-3-yl)-1,2,4-oxadiazole] | 30 to 100
CCC(CC)c1nc(-c2ccc(C#Cc3ccccn3)nc2)no1 [Compound 87, 5-(pentan-3-yl)-3-(6-(pyridin-2-ylethynyl)pyridin-3-yl)-1,2,4-oxadiazole] | ≤ 30
CCC(CC)c1nc(-c2ccc(C#Cc3ccncc3)nc2)no1 [Compound 91, 5-(pentan-3-yl)-3-(6-(pyridin-4-ylethynyl)pyridin-3-yl)-1,2,4-oxadiazole] | ≤ 30
Fc1cccc(C#Cc2ccc(-c3noc(C4CCCC4)n3)nc2)c1 [Compound 95, 5-cyclopentyl-3-(5-((3-fluorophenyl)ethynyl)pyridin-2-yl)-1,2,4-oxadiazole] | ≤ 30
COC(C)c1nc(-c2ccc(C#Cc3cccc(F)c3)cn2)no1 (stereo not drawn) [Compound 96, 3-(5-((3-fluorophenyl)ethynyl)pyridin-2-yl)-5-(1-methoxyethyl)-1,2,4-oxadiazole] | ≤ 30
Fc1cccc(C#Cc2ccc(-c3noc(C4COCCN4)n3)nc2)c1 (stereo not drawn) [Compound 98] | 30 to 100
CN1CCC1c1nc(-c2ccc(C#Cc3cccc(F)c3)cn2)no1 (stereo not drawn) [Compound 101, 3-(5-((3-fluorophenyl)ethynyl)pyridin-2-yl)-5-(1-methylazetidin-2-yl)-1,2,4-oxadiazole] | 30 to 100
CNCc1nc(-c2ccc(C#Cc3cccc(F)c3)cn2)no1 [Compound 102, 1-(3-(5-((3-fluorophenyl)ethynyl)pyridin-2-yl)-1,2,4-oxadiazol-5-yl)-N-methylmethanamine] | 300 to 1000
CN(C)Cc1nc(-c2ccc(C#Cc3cccc(F)c3)cn2)no1 [Compound 103, 1-(3-(5-((3-fluorophenyl)ethynyl)pyridin-2-yl)-1,2,4-oxadiazol-5-yl)-N,N-dimethylmethanamine] | 30 to 100
CC(c1nc(-c2ccc(C#Cc3cccc(F)c3)cn2)no1)N(C)C (stereo not drawn) [Compound 104, 1-(3-(5-((3-fluorophenyl)ethynyl)pyridin-2-yl)-1,2,4-oxadiazol-5-yl)-N,N-dimethylethanamine] | 100 to 300
C[C@H](c1nc(-c2ccc(C#Cc3cccc(F)c3)cn2)no1)N(C)C [Compound 105, (R)-1-(3-(5-((3-fluorophenyl)ethynyl)pyridin-2-yl)-1,2,4-oxadiazol-5-yl)-N,N-dimethylethanamine] | 30 to 100
CNC(C)c1nc(-c2ccc(C#Cc3cccc(F)c3)cn2)no1 (stereo not drawn) [Compound 107, 1-(3-(5-((3-fluorophenyl)ethynyl)pyridin-2-yl)-1,2,4-oxadiazol-5-yl)-N-methylethanamine] | 30 to 100
CC(c1nc(-c2ccc(C#Cc3cccc(F)c3)cn2)no1)N1CCCC1 (stereo not drawn) [Compound 108, 3-(5-((3-fluorophenyl)ethynyl)pyridin-2-yl)-5-(1-(pyrrolidin-1-yl)ethyl)-1,2,4-oxadiazole] | ≤ 30
CC(C)NC(C)c1nc(-c2ccc(C#Cc3cccc(F)c3)cn2)no1 (stereo not drawn) [Compound 110, N-(1-(3-(5-((3-fluorophenyl)ethynyl)pyridin-2-yl)-1,2,4-oxadiazol-5-yl)ethyl)propan-2-amine] | 30 to 100
CCN(CC)C(C)c1nc(-c2ccc(C#Cc3cccc(F)c3)cn2)no1 (stereo not drawn) [Compound 111, N,N-diethyl-1-(3-(5-((3-fluorophenyl)ethynyl)pyridin-2-yl)-1,2,4-oxadiazol-5-yl)ethanamine] | ≤ 30
CNC(C)(C)c1nc(-c2ccc(C#Cc3cccc(F)c3)cn2)no1 [Compound 112, 2-(3-(5-((3-fluorophenyl)ethynyl)pyridin-2-yl)-1,2,4-oxadiazol-5-yl)-N-methylpropan-2-amine] | ≤ 30
CN(C)C(C)(C)c1nc(-c2ccc(C#Cc3cccc(F)c3)cn2)no1 [Compound 113, 2-(3-(5-((3-fluorophenyl)ethynyl)pyridin-2-yl)-1,2,4-oxadiazol-5-yl)-N,N-dimethylpropan-2-amine] | ≤ 30
CCC(N)c1nc(-c2ccc(C#Cc3cccc(F)c3)cn2)no1 (stereo not drawn) [Compound 114, 1-(3-(5-((3-fluorophenyl)ethynyl)pyridin-2-yl)-1,2,4-oxadiazol-5-yl)propan-1-amine] | 100 to 300
CCC(NC)c1nc(-c2ccc(C#Cc3cccc(F)c3)cn2)no1 (stereo not drawn) [Compound 115, 1-(3-(5-((3-fluorophenyl)ethynyl)pyridin-2-yl)-1,2,4-oxadiazol-5-yl)-N-methylpropan-1-amine] | 30 to 100
CCC(c1nc(-c2ccc(C#Cc3cccc(F)c3)cn2)no1)N(C)C (stereo not drawn) [Compound 116, 1-(3-(5-((3-fluorophenyl)ethynyl)pyridin-2-yl)-1,2,4-oxadiazol-5-yl)-N,N-dimethylpropan-1-amine] | ≤ 30
CCC(NC1CC1)c1nc(-c2ccc(C#Cc3cccc(F)c3)cn2)no1 (stereo not drawn) [Compound 117, N-(1-(3-(5-((3-fluorophenyl)ethynyl)pyridin-2-yl)-1,2,4-oxadiazol-5-yl)propyl)cyclopropanamine] | ≤ 30
CN(C)C1(c2nc(-c3ccc(C#Cc4cccc(F)c4)cn3)no2)CC1 [Compound 118, 1-(3-(5-((3-fluorophenyl)ethynyl)pyridin-2-yl)-1,2,4-oxadiazol-5-yl)-N,N-dimethylcyclopropanamine] | ≤ 30
C#CCN1CCCC1c1nc(-c2ccc(C#Cc3cccc(F)c3)cn2)no1 (stereo not drawn) [Compound 124, 3-(5-((3-fluorophenyl)ethynyl)pyridin-2-yl)-5-(1-(prop-2-yn-1-yl)pyrrolidin-2-yl)-1,2,4-oxadiazole] | ≤ 30
C=C1CN[C@H](c2nc(-c3ccc(C#Cc4cccc(F)c4)cn3)no2)C1 [Compound 127, (S)-3-(5-((3-fluorophenyl)ethynyl)pyridin-2-yl)-5-(4-methylenepyrrolidin-2-yl)-1,2,4-oxadiazole] | 100 to 300
O[C@H]1CN[C@H](c2nc(-c3ccc(C#Cc4cccc(F)c4)cn3)no2)C1 [Compound 129, (3R,5S)-5-(3-(5-((3-fluorophenyl)ethynyl)pyridin-2-yl)-1,2,4-oxadiazol-5-yl)pyrrolidin-3-ol] | 300 to 1000
CN1C[C@H](O)C[C@H]1c1nc(-c2ccc(C#Cc3cccc(F)c3)cn2)no1 [Compound 130, (3R,5S)-5-(3-(5-((3-fluorophenyl)ethynyl)pyridin-2-yl)-1,2,4-oxadiazol-5-yl)-1-methylpyrrolidin-3-ol] | 30 to 100
CO[C@H]1CN[C@@H](c2nc(-c3ccc(C#Cc4cccc(F)c4)cn3)no2)C1 [Compound 133, 3-(5-((3-fluorophenyl)ethynyl)pyridin-2-yl)-5-((2R,4R)-4-methoxypyrrolidin-2-yl)-1,2,4-oxadiazole] | 30 to 100

Continued, values first:

EC50 [nM] | Structure (SMILES)
300 to 1000 | CCC(OC)c1nc(-c2ccc(C#Cc3ccccn3)nc2)no1 (stereo not drawn) [Compound 89, 5-(1-methoxypropyl)-3-(6-(pyridin-2-ylethynyl)pyridin-3-yl)-1,2,4-oxadiazole]
≤ 30 | CCC(C)c1nc(-c2ccc(C#Cc3ccncc3)nc2)no1 (stereo not drawn) [Compound 90, 5-(sec-butyl)-3-(6-(pyridin-4-ylethynyl)pyridin-3-yl)-1,2,4-oxadiazole]
100 to 300 | COC(C)c1nc(-c2ccc(C#Cc3ccncc3)nc2)no1 (stereo not drawn) [Compound 92, 5-(1-methoxyethyl)-3-(6-(pyridin-4-ylethynyl)pyridin-3-yl)-1,2,4-oxadiazole]
30 to 100 | CCC(OC)c1nc(-c2ccc(C#Cc3ccncc3)nc2)no1 (stereo not drawn) [Compound 93]
≤ 30 | CCC(C)c1nc(-c2ccc(C#Cc3cccc(F)c3)cn2)no1 (stereo not drawn) [Compound 94, 5-(sec-butyl)-3-(5-((3-fluorophenyl)ethynyl)pyridin-2-yl)-1,2,4-oxadiazole]
≤ 30 | CCC(OC)c1nc(-c2ccc(C#Cc3cccc(F)c3)cn2)no1 (stereo not drawn) [Compound 97, 3-(5-((3-fluorophenyl)ethynyl)pyridin-2-yl)-5-(1-methoxypropyl)-1,2,4-oxadiazole]
300 to 1000 | CC(C)(C)OC(=O)N1CCC1c1nc(-c2ccc(C#Cc3cccc(F)c3)cn2)no1 (stereo not drawn) [Compound 99, tert-butyl 2-(3-(5-((3-fluorophenyl)ethynyl)pyridin-2-yl)-1,2,4-oxadiazol-5-yl)azetidine-1-carboxylate]
≤ 30 | C[C@@H](c1nc(-c2ccc(C#Cc3cccc(F)c3)cn2)no1)N(C)C [Compound 106, (S)-1-(3-(5-((3-fluorophenyl)ethynyl)pyridin-2-yl)-1,2,4-oxadiazol-5-yl)-N,N-dimethylethanamine]
≤ 30 | CC(NC1CC1)c1nc(-c2ccc(C#Cc3cccc(F)c3)cn2)no1 (stereo not drawn) [Compound 109, N-(1-(3-(5-((3-fluorophenyl)ethynyl)pyridin-2-yl)-1,2,4-oxadiazol-5-yl)ethyl)cyclopropanamine]
300 to 1000 | Fc1cccc(C#Cc2ccc(-c3noc(C4CCCN4)n3)nc2)c1 (stereo not drawn) [Compound 119, 3-(5-((3-fluorophenyl)ethynyl)pyridin-2-yl)-5-(pyrrolidin-2-yl)-1,2,4-oxadiazole]
100 to 300 | CC1(c2nc(-c3ccc(C#Cc4cccc(F)c4)cn3)no2)CCCN1 (stereo not drawn) [Compound 122, 3-(5-((3-fluorophenyl)ethynyl)pyridin-2-yl)-5-(2-methylpyrrolidin-2-yl)-1,2,4-oxadiazole]
≤ 30 | Fc1cccc(C#Cc2ccc(-c3noc(C4CCCN4CCC(F)(F)F)n3)nc2)c1 (stereo not drawn) [Compound 123, 3-(5-((3-fluorophenyl)ethynyl)pyridin-2-yl)-5-(1-(3,3,3-trifluoropropyl)pyrrolidin-2-yl)-1,2,4-oxadiazole]
30 to 100 | N#CCN1CCCC1c1nc(-c2ccc(C#Cc3cccc(F)c3)cn2)no1 (stereo not drawn) [Compound 125, 2-(2-(3-(5-((3-fluorophenyl)ethynyl)pyridin-2-yl)-1,2,4-oxadiazol-5-yl)pyrrolidin-1-yl)acetonitrile]
30 to 100 | Fc1cccc(C#Cc2ccc(-c3noc(C4CCCN4C4CCC4)n3)nc2)c1 (stereo not drawn) [Compound 126, 5-(1-cyclobutylpyrrolidin-2-yl)-3-(5-((3-fluorophenyl)ethynyl)pyridin-2-yl)-1,2,4-oxadiazole]
100 to 300 | CN1C[C@H](O)C[C@@H]1c1nc(-c2ccc(C#Cc3cccc(F)c3)cn2)no1 [Compound 132, (3R,5R)-5-(3-(5-((3-fluorophenyl)ethynyl)pyridin-2-yl)-1,2,4-oxadiazol-5-yl)-1-methylpyrrolidin-3-ol]
